Laboratory results taken from patent US10238679B2, “Antitumor activity of multi-kinase inhibitors in colorectal cancer” (ENTRECHEM, S.L, priority 2014, dated 2019).

Experiments:
SW620 cells [1] = experiment: MTT metabolization, SW620 cell proliferation; assay type: cell-based
Procedure: (§1) SW620, HT29 and SW48 were grown in DMEM; this medium was purchased from Sigma Aldrich, supplemented with 10% FBS, 100 mU/mL penicillin, 100 μg/mL streptomycin and 2 mM L-glutamine, in a 5% CO2 atmosphere at 37° C. These colorectal cancer cell lines were obtained from the American Type Culture Collection Cell Biology Collection (ATCC) (Manassas, Va.). The medium was changed every 2 days.
(§2) Cell proliferation and growth experiments were carried out using 3-(4,5-dimethylthiazol-2-yl)-2,5-diphenyltetrazolium bromide (MTT) uptake assays, where MTT is reduced to purple formazan by the mitochondria of living cells. Increase in cell number is detected by augmented MTT metabolization, and decrease in cell number is reflected by a decrease. SW620, HT29 and SW48 cells were plated at a density of 1×10^4 cells per well in 24-well plates and cultured overnight in DMEM supplemented with 10% FBS. The cells were treated with the drug at different concentrations to plot the dose—response curves in all cancer cell lines using in the study. […] After treatment, each well was replaced with 250 μL of fresh medium containing MTT ([…]) and incubated for 1 hour. The medium was then removed and 500 μL of dimethyl sulfoxide was added to each well. The plate was agitated in the dark for 5 minutes to dissolve the MTT-formazan crystals. The absorbance of the samples was recorded at 562 nm in a multi-well plate reader (BMG labtech). Results were plotted as the mean values of quadruplicates from a representative experiment that was repeated at least two independent times.
(§3) Combination index values less than 1 indicate synergism, values equal to 1 indicate an additive effect, whereas values greater than 1 indicate antagonism. Combination index values from three independent experiments were generated.

HT29 cells [2] = experiment: MTT metabolization, HT29 cell proliferation; assay type: cell-based
Procedure: as §1, §2, §3

[3] = system: SW620, HT29 and SW48 cells; experiment: MTT metabolization, colorectal cancer cell lines (IC50 dose, line not specified); assay type: cell-based; conditions: dose used for time-response curve
Procedure: as §2

SW620 cells [4] = experiment: Cell cycle analysis by flow cytometry (propidium iodide), SW620; assay type: cell-based; conditions: 500 nM, 24 h
Procedure: (§4) Cell cycle analyses and evaluation of apoptosis were performed by flow cytometry using propidium iodide and Annexin V, respectively.
(§5) For cell cycle analyses, SW620 and HT29 cells were cultured in 100-mm culture dishes, grown to 70% confluence, and treated with 500 nM Formula (III) for 24 h. Cell monolayers were then incubated in trypsin—EDTA and resuspended in 1 mL of PBS. After three washes with PBS, the cell pellets were resuspended in ice cold 70% ethanol for 2 min and centrifuged 5 min at 1800 rpm. The cell pellets were treated with 1 mL of propidium iodide (PI) staining solution (PBS containing 50 μg/mL of PI, 0.5% Tween 20, 0.1 μg/mL RNase A) (BD Biosciencies) and incubated in the dark for 1 h. DNA content and cell cycle analyses were performed by using a FACS canto II flow cytometer and the CellQuest software (BD Biosciences).

HT29 cells [5] = experiment: Cell cycle analysis by flow cytometry (propidium iodide), HT29; assay type: cell-based; conditions: 500 nM, 24 h
Procedure: as §4, §5

SW620 cells [6] = experiment: Apoptosis by Annexin V flow cytometry, SW620; assay type: cell-based; conditions: 48 hours
Procedure: as §4
(§6) For apoptosis analyses, SW620 and HT29 cell monolayers were incubated in trypsin—EDTA, washed twice with cold PBS, and then resuspended in binding buffer (10 mM HEPES free acid [pH 7.4], 140 mM NaCl, 2.5 mM CaCl2) at a concentration of 1×10^6 cells per mL. A total of 1×10^5 cells were incubated for 15 minutes in the dark with Annexin V-APC (BD Biosciences) and propidium iodide (PI) staining solution (5 μL Annexin […], 10 μL of PI [[…] final concentration], 400 μL binding buffer).

HT29 cells [7] = experiment: Apoptosis by Annexin V flow cytometry, HT29; assay type: cell-based; conditions: 48 hours
Procedure: as §4, §6

[8] = system: phosphorylated γH2AX in SW620 cells; experiment: Western blot of DNA damage marker phosphorylated γH2AX, SW620; assay type: cell-based; conditions: 500 nM, time dependent up to 24 h
Procedure: (§7) Western-blot and phospho-array kits were used for evaluation of signaling intermediates. SW620 and HT29 cell lines were grown in DMEM 10% of FBS and at 70% confluence were treated with Formula (III) at 500 nM for 6, 12 and 24 hours. Cells were washed with phosphate-buffered saline (PBS) (137 mM NaCl, 2.7 mM KCl, 8 mM Na2HPO4, 1.5 mM KH2PO4) and lysed in ice-cold lysis buffer (20 mM Tris-HCl [pH 7.0], 140 mM NaCl, 50 mM EDTA, 10% glycerol, 1% Nonidet P-40, 1 μM pepstatin, 1 μg/mL aprotinin, 1 μg/mL leupeptin, 1 mM phenylmethyl sulfonyl fluoride, 1 mM sodium orthovanadate). Lysates were centrifuged at 10000 g at 4° C. for 10 minutes. The protein level in the supernatants was quantified using BCA protein assay (Sigma Aldrich). A total of 50 μg of protein of each sample was used for analysis. Samples were then boiled in electrophoresis sample buffer and placed on 6%-15% sodium dodecyl sulfate-polyacrylamide gel electrophoresis (SDS-PAGE) gels, depending on the molecular weight of the proteins to be analyzed. Briefly, after electrophoresis, proteins in gels were transferred to polyvinylidene difluoride membranes (Millipore Corporation). Membranes were blocked in Tris-buffered saline with Tween (TBST) (100 mM Tris [pH 7.5], 150 mM NaCl, 0.05% Tween 20) containing 1% of bovine serum albumin for 1 h and then incubated overnight with the corresponding antibody. […]

[9] = system: phosphorylated γH2AX in HT29 cells; experiment: Western blot of DNA damage marker phosphorylated γH2AX, HT29; assay type: cell-based; conditions: 500 nM, time dependent up to 24 h
Procedure: as §7

[10] = system: pS6, AKT, Src and Lck in SW620 cells; experiment: Phospho-kinase dot blot array and Western blot, SW620; assay type: cell-based; conditions: 500 nM, at 6 hours or 12 hours
Procedure: as §7

[11] = system: pS6 and Src in HT29 cells; experiment: Phospho-kinase dot blot array and Western blot, HT29; assay type: cell-based; conditions: 500 nM, at 6 hours
Procedure: as §7

[12] = system: a range of tyrosine and serine/threonine kinases; conditions: biochemical assays; background statement; cited from earlier work
[13] = animal models; background statement; cited from earlier work
[14] = doses in the submicromolar (nanomolar) range

SMILES: C[C@]12O[C@H](C[C@H](O)[C@H]1O)n1c3ccccc3c3c4c(c5c6ccccc6n2c5c31)C(=O)NC4=O [Formula (III)]
- half-maximal inhibitory effect (MTT metabolization) (SW620 cells [1]): nanomolar range
- growth inhibition (SW620 cells [1]; [14]): more than 80%
- effect on proliferation compared with other inhibitors (SW620 cells [1]; vs lapatinib, sunitinib, crizotinib, BEZ235, NVP-BSK805, dasatinib, 0 to 2 μM, 72 h): strong effect
- half-maximal inhibitory effect (MTT metabolization) (HT29 cells [2]): nanomolar range
- growth inhibition (HT29 cells [2]; [14]): more than 80%
- effect on proliferation compared with other inhibitors (HT29 cells [2]; vs lapatinib, sunitinib, crizotinib, BEZ235, NVP-BSK805, dasatinib): strong effect
- IC50 [3]: 500 nM
- effect on cell cycle (SW620 cells [4]): strong arrest in G2/M phase
- effect on cell cycle (HT29 cells [5]): strong arrest in G2/M phase
- apoptosis (Annexin staining) (SW620 cells [6]): induction of apoptosis
- apoptosis (Annexin staining) (HT29 cells [7]): induction of apoptosis
- phosphorylated levels of γH2AX (DNA damage) [8]: increase in the phosphorylated levels of γH2AX
- phosphorylated levels of γH2AX (DNA damage) [9]: increase in the phosphorylated levels of γH2AX
- phosphorylation/activation status of kinases pS6, AKT, Src and Lck [10]: strongly inhibited
- phosphorylation/activation status of pS6 and Src [11]: inhibited
- affinity towards and inhibition of kinase activity [12]: nanomolar and subnanomolar range
- anti-tumoral activity in vivo [13]: anti-tumoral activity
- toxicities in vivo [13]: no evidence of toxicities
